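In this assay, cells in 96-well plates receive the compound at five concentrations for 48 hours. Endpoints are linearly interpolated between the surrounding concentrations. TGI is the concentration that stops growth completely.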
These compounds were tested on SK-MEL-2 melanoma (assay: DTP human tumour cell line panel, 48 h).

Q: How did the TGI turn out when `CN(C)CCNc1ccc2nnn3c4ccccc4c(=O)c1c23` was run?
A: 13.9 µM

Q: How did the TGI turn out when `COC1=CC(=Nc2c(Cl)cc(Cl)cc2OC(=O)c2ccc([N+](=O)[O-])cc2)C=C(OC)C1=O` was run?
A: 29.9 µM

Q: `CCOC(=O)C(C)c1c(C(=O)c2ccc(C)nc2)c2ccccc2n1C` (stereo not drawn) was tested. Which TGI did it give?
A: > 100 µM

Each compound was assayed on SK-MEL-28 melanoma (assay: DTP human tumour cell line panel, 48 h).

Q: How did the TGI turn out when `CN(C)CCNc1ccc2nnn3c4ccccc4c(=O)c1c23` was run?
A: 15.1 µM

Q: With `COC1=CC(=Nc2c(Cl)cc(Cl)cc2OC(=O)c2ccc([N+](=O)[O-])cc2)C=C(OC)C1=O` as the compound, how does the TGI read?
A: 30.5 µM

Q: How did the TGI turn out when `CCOC(=O)C(C)c1c(C(=O)c2ccc(C)nc2)c2ccccc2n1C` (stereo not drawn) was run?
A: > 100 µM

What follows are compounds tested on SK-MEL-5 melanoma (assay: DTP human tumour cell line panel, 48 h).

Q: With `O=C(Cc1nc2ccccc2o1)C(=O)Nc1ccccc1C(F)(F)F` as the compound, how does the TGI read?
A: > 100 µM

Q: For `CN(C)CCNc1ccc2nnn3c4ccccc4c(=O)c1c23`, which TGI is on record?
A: 5.35 µM

Q: How did the TGI turn out when `COC1=CC(=Nc2c(Cl)cc(Cl)cc2OC(=O)c2ccc([N+](=O)[O-])cc2)C=C(OC)C1=O` was run?
A: 20.4 µM

Q: `CCOC(=O)C(C)c1c(C(=O)c2ccc(C)nc2)c2ccccc2n1C` (stereo not drawn) was tested. Which TGI did it give?
A: > 100 µM

These compounds were tested on SK-OV-3 ovarian (assay: DTP human tumour cell line panel, 48 h).

Q: Which TGI does the source give for `O=C(Cc1nc2ccccc2o1)C(=O)Nc1ccccc1C(F)(F)F` here?
A: > 100 µM

Q: `CN(C)CCNc1ccc2nnn3c4ccccc4c(=O)c1c23` was tested. Which TGI did it give?
A: 33.2 µM

Q: `COC1=CC(=Nc2c(Cl)cc(Cl)cc2OC(=O)c2ccc([N+](=O)[O-])cc2)C=C(OC)C1=O` was tested. Which TGI did it give?
A: 30.8 µM

Q: Which TGI does the source give for `CCOC(=O)C(C)c1c(C(=O)c2ccc(C)nc2)c2ccccc2n1C` (stereo not drawn) here?
A: > 100 µM

The compounds below were run on SN12C renal (assay: DTP human tumour cell line panel, 48 h).

Q: For `O=C(Cc1nc2ccccc2o1)C(=O)Nc1ccccc1C(F)(F)F`, which TGI is on record?
A: > 100 µM

Q: For `CN(C)CCNc1ccc2nnn3c4ccccc4c(=O)c1c23`, which TGI is on record?
A: 19.9 µM

Q: How did the TGI turn out when `COC1=CC(=Nc2c(Cl)cc(Cl)cc2OC(=O)c2ccc([N+](=O)[O-])cc2)C=C(OC)C1=O` was run?
A: 24.3 µM

Q: Which TGI does the source give for `CCOC(=O)C(C)c1c(C(=O)c2ccc(C)nc2)c2ccccc2n1C` (stereo not drawn) here?
A: > 100 µM

The compounds below were run on SNB-19 CNS (assay: DTP human tumour cell line panel, 48 h).

Q: For `O=C(Cc1nc2ccccc2o1)C(=O)Nc1ccccc1C(F)(F)F`, which TGI is on record?
A: > 100 µM

Q: How did the TGI turn out when `CN(C)CCNc1ccc2nnn3c4ccccc4c(=O)c1c23` was run?
A: 34.8 µM

Q: Which TGI does the source give for `COC1=CC(=Nc2c(Cl)cc(Cl)cc2OC(=O)c2ccc([N+](=O)[O-])cc2)C=C(OC)C1=O` here?
A: 30 µM

These compounds were tested on SNB-75 CNS (assay: DTP human tumour cell line panel, 48 h).

Q: `O=C(Cc1nc2ccccc2o1)C(=O)Nc1ccccc1C(F)(F)F` was tested. Which TGI did it give?
A: > 100 µM

Q: How did the TGI turn out when `CN(C)CCNc1ccc2nnn3c4ccccc4c(=O)c1c23` was run?
A: 10.4 µM

Q: How did the TGI turn out when `COC1=CC(=Nc2c(Cl)cc(Cl)cc2OC(=O)c2ccc([N+](=O)[O-])cc2)C=C(OC)C1=O` was run?
A: 27.8 µM

Q: With `CCOC(=O)C(C)c1c(C(=O)c2ccc(C)nc2)c2ccccc2n1C` (stereo not drawn) as the compound, how does the TGI read?
A: > 100 µM

These compounds were tested on SNB-78 CNS (assay: DTP human tumour cell line panel, 48 h).

Q: For `O=C(Cc1nc2ccccc2o1)C(=O)Nc1ccccc1C(F)(F)F`, which TGI is on record?
A: > 100 µM

Q: For `CN(C)CCNc1ccc2nnn3c4ccccc4c(=O)c1c23`, which TGI is on record?
A: 30.5 µM

Q: For `COC1=CC(=Nc2c(Cl)cc(Cl)cc2OC(=O)c2ccc([N+](=O)[O-])cc2)C=C(OC)C1=O`, which TGI is on record?
A: 56.9 µM

Q: For `CCOC(=O)C(C)c1c(C(=O)c2ccc(C)nc2)c2ccccc2n1C` (stereo not drawn), which TGI is on record?
A: > 100 µM

The compounds below were run on SR leukemia (assay: DTP human tumour cell line panel, 48 h).

Q: For `CN(C)CCNc1ccc2nnn3c4ccccc4c(=O)c1c23`, which TGI is on record?
A: > 32.8 µM

Q: For `COC1=CC(=Nc2c(Cl)cc(Cl)cc2OC(=O)c2ccc([N+](=O)[O-])cc2)C=C(OC)C1=O`, which TGI is on record?
A: 15.3 µM

Each compound was assayed on SW-620 colon (assay: DTP human tumour cell line panel, 48 h).

Q: How did the TGI turn out when `O=C(Cc1nc2ccccc2o1)C(=O)Nc1ccccc1C(F)(F)F` was run?
A: > 100 µM

Q: For `CN(C)CCNc1ccc2nnn3c4ccccc4c(=O)c1c23`, which TGI is on record?
A: 11 µM

Q: Which TGI does the source give for `COC1=CC(=Nc2c(Cl)cc(Cl)cc2OC(=O)c2ccc([N+](=O)[O-])cc2)C=C(OC)C1=O` here?
A: 26.8 µM

Q: For `CCOC(=O)C(C)c1c(C(=O)c2ccc(C)nc2)c2ccccc2n1C` (stereo not drawn), which TGI is on record?
A: > 100 µM

These compounds were tested on T-47D breast (assay: DTP human tumour cell line panel, 48 h).

Q: Which TGI does the source give for `CN(C)CCNc1ccc2nnn3c4ccccc4c(=O)c1c23` here?
A: 32.3 µM

What follows are compounds tested on TK-10 renal (assay: DTP human tumour cell line panel, 48 h).

Q: `O=C(Cc1nc2ccccc2o1)C(=O)Nc1ccccc1C(F)(F)F` was tested. Which TGI did it give?
A: > 100 µM

Q: How did the TGI turn out when `CN(C)CCNc1ccc2nnn3c4ccccc4c(=O)c1c23` was run?
A: 12.7 µM

Q: How did the TGI turn out when `COC1=CC(=Nc2c(Cl)cc(Cl)cc2OC(=O)c2ccc([N+](=O)[O-])cc2)C=C(OC)C1=O` was run?
A: 37.4 µM

Q: Which TGI does the source give for `CCOC(=O)C(C)c1c(C(=O)c2ccc(C)nc2)c2ccccc2n1C` (stereo not drawn) here?
A: > 100 µM

These compounds were tested on U251 CNS (assay: DTP human tumour cell line panel, 48 h).

Q: How did the TGI turn out when `O=C(Cc1nc2ccccc2o1)C(=O)Nc1ccccc1C(F)(F)F` was run?
A: > 100 µM

Q: `CN(C)CCNc1ccc2nnn3c4ccccc4c(=O)c1c23` was tested. Which TGI did it give?
A: 7.63 µM

Q: `COC1=CC(=Nc2c(Cl)cc(Cl)cc2OC(=O)c2ccc([N+](=O)[O-])cc2)C=C(OC)C1=O` was tested. Which TGI did it give?
A: 27.1 µM

What follows are compounds tested on UACC-257 melanoma (assay: DTP human tumour cell line panel, 48 h).

Q: Which TGI does the source give for `O=C(Cc1nc2ccccc2o1)C(=O)Nc1ccccc1C(F)(F)F` here?
A: > 100 µM

Q: How did the TGI turn out when `CN(C)CCNc1ccc2nnn3c4ccccc4c(=O)c1c23` was run?
A: 11.4 µM

Q: With `COC1=CC(=Nc2c(Cl)cc(Cl)cc2OC(=O)c2ccc([N+](=O)[O-])cc2)C=C(OC)C1=O` as the compound, how does the TGI read?
A: 24.2 µM

Q: For `CCOC(=O)C(C)c1c(C(=O)c2ccc(C)nc2)c2ccccc2n1C` (stereo not drawn), which TGI is on record?
A: > 100 µM

Each compound was assayed on UACC-62 melanoma (assay: DTP human tumour cell line panel, 48 h).

Q: `O=C(Cc1nc2ccccc2o1)C(=O)Nc1ccccc1C(F)(F)F` was tested. Which TGI did it give?
A: > 100 µM

Q: For `CN(C)CCNc1ccc2nnn3c4ccccc4c(=O)c1c23`, which TGI is on record?
A: 11.6 µM

Q: `COC1=CC(=Nc2c(Cl)cc(Cl)cc2OC(=O)c2ccc([N+](=O)[O-])cc2)C=C(OC)C1=O` was tested. Which TGI did it give?
A: 15.6 µM

Q: How did the TGI turn out when `CCOC(=O)C(C)c1c(C(=O)c2ccc(C)nc2)c2ccccc2n1C` (stereo not drawn) was run?
A: > 100 µM

The compounds below were run on UO-31 renal (assay: DTP human tumour cell line panel, 48 h).

Q: Which TGI does the source give for `O=C(Cc1nc2ccccc2o1)C(=O)Nc1ccccc1C(F)(F)F` here?
A: > 100 µM

Q: With `CN(C)CCNc1ccc2nnn3c4ccccc4c(=O)c1c23` as the compound, how does the TGI read?
A: 8.6 µM

Q: With `COC1=CC(=Nc2c(Cl)cc(Cl)cc2OC(=O)c2ccc([N+](=O)[O-])cc2)C=C(OC)C1=O` as the compound, how does the TGI read?
A: 24.3 µM

The compounds below were run on XF 498 CNS (assay: DTP human tumour cell line panel, 48 h).

Q: `O=C(Cc1nc2ccccc2o1)C(=O)Nc1ccccc1C(F)(F)F` was tested. Which TGI did it give?
A: > 100 µM

Q: For `CN(C)CCNc1ccc2nnn3c4ccccc4c(=O)c1c23`, which TGI is on record?
A: 19.5 µM

Q: With `COC1=CC(=Nc2c(Cl)cc(Cl)cc2OC(=O)c2ccc([N+](=O)[O-])cc2)C=C(OC)C1=O` as the compound, how does the TGI read?
A: 21.5 µM

Q: How did the TGI turn out when `CCOC(=O)C(C)c1c(C(=O)c2ccc(C)nc2)c2ccccc2n1C` (stereo not drawn) was run?
A: > 100 µM

From PubChem BioAssay (NCI)
